Data taken from publication PMC6609550, “Blockade of the forward Na^+/Ca^2+ exchanger suppresses the growth of glioblastoma cells through Ca^2+‐mediated cell death” (British Journal of Pharmacology, 2019).

Tests used:
[1] = system: JNK; experiment: Western blot of phosphorylated and total JNK in U87 cells; format: cell-based, Human; conditions: 25 μM, 10, 30, 60 and 90 min
Procedure: After treatment with bepridil for 0, 30, 60, and 90 min, cells were collected and lysed in RIPA buffer (Beyotime, Nanjing, China) supplemented with protease inhibitor (Beyotime). The total protein concentration of each sample was determined using the BCA Protein Assay Kit (Sangon Biotech, Shanghai, China). Equal protein extracts (45‐μg protein per lane) were separated by SDS‐PAGE and electrophoretically transferred to PVDF membranes (Millipore, Bedford, MA, USA). Then, the membranes were incubated with anti‐phosphorylated and total http://www.guidetopharmacology.org/GRAC/FamilyDisplayForward?familyId=514, http://www.guidetopharmacology.org/GRAC/FamilyDisplayForward?familyId=518, and http://www.guidetopharmacology.org/GRAC/FamilyDisplayForward?familyId=519 antibodies (1:1,000; Cell Signaling Technology) at 4°C overnight, followed by incubation with IRDye 680LT fluorescent secondary antibody (LI‐COR Biosciences, Lincoln, NE, USA). Proteins were visualized using the Odyssey Fc Imaging System (LI‐COR Biosciences, Lincoln, NE, USA). Mouse α‐tubulin antibody was used as protein loading controls. The immuno‐related procedures used comply with the recommendations made by the British Journal of Pharmacology (Alexander et al., 2018).

[2] = design: method as in Lipsanen et al., 2013; Mitterreiter et al., 2010; conditions: oral administration or intraperitoneal injection at 50 mg·kg^−1 body weight, two animal studies; ref Lipsanen et al., 2013; Mitterreiter et al., 2010; cited from earlier work
[3] = Cell viability assay (Cell Counting Kit-8), ranges given for U87 and U251 together; format: cell-based, Human; conditions: human, U87 and U251 cells, read-out: Cell viability, % of control level
Procedure: (§1) Cell viability was determined by using a Cell Counting Kit‐8 (Dojindo, Japan). Briefly, cells were harvested from flasks and plated in 96‐well cell culture plates at 5 × 10^3 per well and cultured overnight. Cells were treated with test reagents for 72 hr. Control cells were treated with cell culture medium and measured at the same time point as treatment groups. CCK‐8 solution (10 μl) was added to each well of the 96‐well plates, and the cultures were incubated for 30 min at 37°C. Absorbance at 450 nm was measured using an automatic microplate reader (Molecular Devices, San Jose, CA, USA).

[4] = LC-MS analysis of brain homogenate after oral bepridil; format: in vivo, athymic BALB/c nude mice; conditions: 50 mg·kg^−1 p.o., brain homogenate collected at 2 hr
Procedure: Athymic BALB/c nude mice were administered bepridil by oral gavage at doses of 50 mg·kg^−1 as described above. Two hours later, mice were killed, and the brain sample was homogenized using the tissue homogenizers (Bertin Instruments, Paris, France) in ice‐cold deionized water at a concentration of 3 ml·g^−1 tissue. Then, methanol with 0.1% formic acid was added to the brain homogenate in a 4:1 proportion (vol/vol) and centrifuged at 18,188× g and 4°C for 10 min to precipitate protein. The supernatant was transferred to a vial to be injected directly into the LC‐MS. The chromatographic system consisted of Shimadzu quaternary pump, vacuum degasser, and autosampler (Shimadzu, LC‐20ADXR, Tokyo, Japan) coupled to https://sciex.com/products/mass-spectrometers/triple-quad-systems, API‐4000 mass spectrometer (SCIEX, Redwood City, CA, USA). HPLC separation was performed on a Thermo Syncronis C8 column 100 × 2.1 mm, 5.0 μm. The mobile phase consisted of methanol (A) and water with 0.1% formic acid (B), measure time was 9 min per run. A flow rate of 0.3 ml·min^−1 was used using a gradient elution of 70% B at 1 min and 5–70% B between 1 and 5 min and maintained for 2 min at 5% B and back to 70% B at 7–7.1 min. […] The CE for bepridil was optimized to 30 V. The precursor‐to‐product ions (Q1 → Q3) selected for bepridil during quantitative optimization were (m/z) 367.1 → 84.3/184.3.

[5] = system: U87‐Luc xenografts; experiment: U87-luciferase intracranial xenograft, in vivo bioluminescent imaging; design: species or system athymic BALB/c nude mice; conditions: 50 mg·kg^−1 p.o. once a day for 14 days, from 16 days after implantation; n = 5 mice per group
Procedure: The athymic BALB/c nude mice were anaesthetized by subjecting them to 3% isoflurane (RWD Life Science, Shenzhen, China) in a mixture of 30% O2 and 70% N2O. […] The mouse head was maintained within a stereotactic frame (RWD Life Science), allowing a precise and reproducible injection. The coordinate of the injection site was 0.5 mm anterior and 2.5 mm right from the bregma and at a depth of 3 mm. U87-Luc cells (COBIOER) were assessed by the trypan blue exclusion assay. Only cell suspensions with greater than 95% viability were used and implanted into the right striatum of nude mice. U87-Luc cells (5 × 10^5 in 5-μl PBS) were inoculated into the right striatum of each mouse at a controlled flow rate of 0.5 μl·min^-1, and the total injection volume was about 5 μl. […] Tumours were measured by bioluminescence using an IVIS Spectrum CT Imaging System (PerkinElmer, Waltham, MA, USA), which captured the luminescence signal emitted from the engrafted tumour. […] Signal intensity was quantified within a region of interested over the head, as defined by Living Image software. All images represent 2-min exposure time, and the average number of photons·s^-1·cm^-2 per steradian were recorded. The data were analysed using Living Image 4.4.5 software (PerkinElmer, RRID:SCR_014247).

[6] = system: U87 and U251 cells; experiment: Cell viability assay (Cell Counting Kit-8), ranges given for U87 and U251 together; format: cell-based, Human; conditions: 72 hr
Procedure: as §1

CC(C)COCC(CN(Cc1ccccc1)c1ccccc1)N1CCCC1 (stereo not shown) [Bepridil, N‐benzyl‐N‐(3‐isobutoxy‐2‐pyrrolidin‐1‐yl‐propyl)aniline]
Effect on JNK activity [1]: activated | Penetration of the blood–brain barrier [2]: able to penetrate the blood–brain barrier (BBB) and reach the brain | viability at 72 h, 20 µM ([3]; 20 μM): 30 to 40% | viability at 72 h, 50 µM ([3]; 50 μM): 6 to 7% | viability at 72 h, 100 µM ([3]; 100 μM): 3 to 4% | Crossing of the BBB into brain tissue [4]: can cross the BBB and get into brain tissue | Growth of brain-grafted U87-Luc tumour (bioluminescence) [5]: successfully restrained tumour growth

CS(=O)(=O)O.N=C(N)SCCc1ccc(OCc2ccc([N+](=O)[O-])cc2)cc1 [KB‐R7943, 2‐[4‐[(4‐nitrophenyl)methoxy]phenyl]ethyl ester carbamimidothioic acid methanesulfonate]
Cell viability, % of control level ([6]; 20 μM): 50–60% | Cell viability, % of control level ([6]; 50 μM): 7–18% | Cell viability, % of control level ([6]; 100 μM): 2–3%
